The values below come from PubChem BioAssay AID687005 (Broad Institute, 2013).

Inconclusive results are not listed. Calls of active or inactive are those of the source.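 Rule for the calls: active = Compounds that reduce signal, with fitted half-maximal dose at or under twice the top valid tested dose; inconclusive = Poor fit, or flat curve losing 30 to 70% of signal; inactive = Potency past limit, flat within 30%, or opposite direction.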

One test is described as follows: HEK293T cell cytotoxicity, dose response, cytotoxicity control, ATP luminescence, cherry-pick samples (AID 687005). The note with it: HEK293T viability, ATP luminescence (CellTiter-Glo), 48 h; at 23.5 µM (top of the series). Background: ATP-based viability assays read luminescence as a measure of living cells.
Regarding `C[C@H](CO)N1C[C@H](C)[C@H](CN(C)C(=O)Nc2ccc3c(c2)OCO3)Oc2ncc(C#CC(C)(C)O)cc2C1=O`, the activity change, negative = cytotoxicity was -10.7% (inactive).

The test is the same for the next values; noted with them: HEK293T viability, ATP luminescence (CellTiter-Glo), 48 h; at 26 µM (top of the series).
On to `Cc1noc(C)c1S(=O)(=O)Nc1ccc2c(c1)C(=O)N([C@H](C)CO)C[C@@H](C)[C@H](CN(C)Cc1ccccc1)OCCCC[C@H](C)O2`, for which the activity change, negative = cytotoxicity is -2.05% (inactive). For `CC(C)C#Cc1ccc([C@@H]2[C@H](CO)N3CCCCN(C(=O)c4ccc5c(c4)OCO5)C[C@@H]23)cc1`, the activity change, negative = cytotoxicity is 28.2% (inactive). On to `O=C(Nc1cccc(F)c1)N[C@H]1CC[C@@H](CCNS(=O)(=O)c2cccc(Cl)c2)O[C@@H]1CO`, for which the activity change, negative = cytotoxicity was -36.3% (inactive).

Regarding `CN1C(=O)c2cc(NS(C)(=O)=O)ccc2OC[C@@H]2O[C@@H](CC(=O)O)CC[C@H]21`, the activity change, negative = cytotoxicity is 4.2% (inactive). On to `Cc1ccccc1OCC(=O)NC(C)c1ccccc1` (centres undefined), for which the activity change, negative = cytotoxicity is -29.9% (inactive). Same read-out and setting: under `CCCCNC(=S)N/N=C/c1ccc(C#N)cc1` stands -29.9% (inactive).

Take `CNC[C@@H]1OCCCC[C@H](C)Oc2ccc(NC(=O)Nc3ccc(F)cc3)cc2C(=O)N([C@@H](C)CO)C[C@H]1C`: the activity change, negative = cytotoxicity is 28.7% (inactive). With `Cc1ccccc1-n1ncc2c(SCC(=O)NCc3cccs3)ncnc21`, the activity change, negative = cytotoxicity is -48.1% (inactive).

On to `CO[C@@H]1CN(C)C(=O)c2ccc(NC(=O)C3CC3)cc2OC[C@H](C)N(C(=O)c2ccncc2)C[C@H]1C`, for which the activity change, negative = cytotoxicity is -27.7% (inactive).

In the case of `CC(C)NC(=O)N(C)C[C@@H]1OCCCC[C@H](C)Oc2ccc(NC(=O)Cc3ccccc3)cc2C(=O)N([C@H](C)CO)C[C@H]1C`, the activity change, negative = cytotoxicity was 47.6% (inactive). `CO[C@@H]1CN(C)C(=O)c2ccc(NS(=O)(=O)c3ccc(Oc4ccccc4)cc3)cc2OC[C@H](C)NC[C@H]1C`: the activity change, negative = cytotoxicity was -26.5% (inactive).

With `CC=Cc1ccc2n(c1=O)C[C@@H]1[C@@H](CO)[C@H](C(=O)N3CCc4ccccc4C3)N(C(=O)C3CC3)[C@H]21` (mixture of isomers), the activity change, negative = cytotoxicity is -3.28% (inactive). As for `CCC(=O)Nc1ccc2c(c1)OC[C@H](C)N(C(=O)c1ccc(F)cc1)C[C@@H](C)[C@@H](OC)CN(C)C2=O`, the activity change, negative = cytotoxicity was 62.2% (inactive).

As for `CNC(=O)C[C@H]1CC[C@H]2[C@@H](COc3ccc(NC(=O)Nc4ccccc4)cc3C(=O)N2C)O1`, the activity change, negative = cytotoxicity is 7.97% (inactive). Take `CC(=O)NC[C@H]1[C@@H](c2ccc(C3=CCCC3)cc2)[C@@H](CO)N1C(=O)NC(C)C`: the activity change, negative = cytotoxicity was -31.1% (inactive). Regarding `CCC(=O)Nc1ccc2c(c1)C(=O)N(C)C[C@@H](OC)[C@H](C)CN[C@@H](C)CO2`, the activity change, negative = cytotoxicity was 4.18% (inactive). For `O=C(C[C@@H]1CC[C@@H]2[C@H](COC[C@H](O)CN2Cc2cccc(C(F)(F)F)c2)O1)NCc1ccc(Cl)cc1`, the activity change, negative = cytotoxicity is 9.32% (inactive).

`C[C@H]1CN([C@@H](C)CO)C(=O)Cc2cc(NC(=O)CCCCCC(=O)Nc3ccccc3N)ccc2O[C@H]1CN(C)C(=O)Nc1ccccc1`: the activity change, negative = cytotoxicity is -5.33% (inactive). As for `CC(=O)c1cccc(NC(=S)NC2CCCCCCC2)c1`, the activity change, negative = cytotoxicity was -21.5% (inactive). As for `COCC#Cc1cnc2c(c1)C(=O)N([C@@H](C)CO)C[C@H](C)[C@H](CN(C)C(=O)Nc1ccc(OC)cc1)O2`, the activity change, negative = cytotoxicity was 21.8% (inactive). `CO[C@H]1CN(C)C(=O)c2ccc(NC(=O)NC(C)C)cc2OC[C@@H](C)NC[C@H]1C`: the activity change, negative = cytotoxicity was -16.2% (inactive). For the compound `N#C[C@H]1[C@@H](c2ccccc2)[C@@H](CO)N1C(=O)Cc1ccccc1`, the activity change, negative = cytotoxicity is -9.76% (inactive).

The test is the same for the next values; noted with them: HEK293T viability, ATP luminescence (CellTiter-Glo), 48 h; at 42 µM (top of the series).
As for `O=C(Cc1cccs1)N1CCN(c2ccccc2)CC1`, the activity change, negative = cytotoxicity is 21.1% (inactive).
